From patent US4623662A, “Antiatherosclerotic ureas and thioureas” (American Cyanamid Company, priority 1985, dated 1986)
“And” between values parts separate entries of the source, which are not always exact repeats. Identical values can stand only once. Like-named read-outs stand apart in the source and are kept apart here. Each block holds one compound with its values, some of them ahead of it.

How the values were obtained:
[1] = system: cholesterol absorption; assay: Inhibition of cholesterol absorption in rats fed 1% cholesterol:0.5% cholic acid diet; assay type: in vivo, male Sprague-Dawley rats; conditions: po, 336 h, rat, dose .03% of the diet, 2 weeks
Procedure, shortened: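 Male Sprague-Dawley rats (150-170 g) fed 1% cholesterol:0.5% cholic acid diet for 2 weeks with compound at 0.001, 0.003, 0.01 or 0.03% of diet. Serum cholesterol measured enzymatically; liver cholesterol from saponified large-lobe sample after petroleum ether extraction. Liver and serum sterol expressed as percent of untreated controls.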

[2] = target: T1, fatty acyl CoA: cholesterol acyl transferase (ACAT) (Rattus norvegicus, UniProt O70536); assay: Inhibition of fatty acyl CoA:cholesterol acyl transferase (ACAT), rat adrenal enzyme; assay type: biochemical
T1 construct: The supernatant, containing the microsomal fraction, served as the source of the cholesterol-esterifying enzyme; from tissue; host or cells: rat adrenals, supernatant of 1,000 x g centrifugation containing the microsomal fraction
T1 sequence (O70536 1-545): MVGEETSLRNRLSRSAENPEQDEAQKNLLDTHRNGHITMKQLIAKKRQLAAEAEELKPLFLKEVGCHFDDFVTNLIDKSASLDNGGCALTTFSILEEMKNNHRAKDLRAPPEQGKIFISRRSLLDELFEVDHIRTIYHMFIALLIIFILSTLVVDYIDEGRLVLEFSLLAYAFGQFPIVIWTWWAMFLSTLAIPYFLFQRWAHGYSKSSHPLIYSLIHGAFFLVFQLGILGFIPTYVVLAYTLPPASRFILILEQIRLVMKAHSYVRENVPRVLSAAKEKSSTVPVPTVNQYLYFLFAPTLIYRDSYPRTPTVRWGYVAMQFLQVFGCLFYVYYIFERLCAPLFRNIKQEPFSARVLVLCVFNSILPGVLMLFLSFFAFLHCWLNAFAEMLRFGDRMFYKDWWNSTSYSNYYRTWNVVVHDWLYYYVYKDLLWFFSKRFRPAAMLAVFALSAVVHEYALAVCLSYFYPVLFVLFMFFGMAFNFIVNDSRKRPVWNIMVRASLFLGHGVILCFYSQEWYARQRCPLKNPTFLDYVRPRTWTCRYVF
Procedure, shortened: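 Enzyme source was the microsomal supernatant of rat adrenal homogenate (0.2M potassium phosphate, pH 7.4) with BSA, preincubated with compound (5.2 μg/ml final for single-point) for 10 min at 37° C. Then [14C]oleoyl CoA added, 10 min at 37° C. TLC-separated cholesteryl ester was counted; percent inhibition versus control, IC50 from several concentrations.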

[3] = read-out: LS (liver sterol), percentage of control values
[4] = read-out: SS (serum sterol), percentage of control values
[5] = rat adrenal ACAT, final concentration 5.2 μg/ml, read-out: % Inhibition

% Inhibition ([2]; rat adrenal ACAT, final concentration 5.2 μg/ml): 70.0% and 91.0%
Structure (SMILES): O=C(Nc1ccc(F)cc1F)N(Cc1ccccc1)C(Cc1ccccc1)c1ccc(OCc2ccccc2)cc1 (stereo not drawn) [1-Benzyl-1-[2-phenyl-1-(4-benzyloxyphenyl)ethyl]-3-(2,4-difluorophenyl)urea]
response vs control in vivo at 0.03 % [1, 3]: 27%
response vs control in vivo at 0.03 % [1, 4]: 48%

inhibition at 5.2 µg/mL [2, 5]: 89.3%
Structure (SMILES): Cc1cc(Cl)ccc1NC(=O)N(Cc1ccccc1)C(Cc1ccccc1)c1ccc(OCc2ccccc2)cc1 (stereo not drawn) [1-Benzyl-1-[2-phenyl-1-(4-benzyloxyphenyl)ethyl]-3-(2-methyl-4-chlorophenyl)urea]
response vs control in vivo at 0.03 % [1, 3]: 31%
response vs control in vivo at 0.03 % [1, 4]: 50%

Structure (SMILES): CCCCCCCN(Cc1cccs1)C(=O)Nc1cc(C)c(C)cc1C [1-Heptyl-1-(2-thienylmethyl)-3-(2,4,5-trimethylphenyl)urea]
response vs control in vivo at 0.03 % [1, 3]: 25%
response vs control in vivo at 0.03 % [1, 4]: 54%
inhibition at 5.2 µg/mL [2]: 90%

Structure (SMILES): CCCCCCCN(Cc1cccs1)C(=O)Nc1c(Cl)cc(Cl)cc1Cl [1-Heptyl-1-(2-thienylmethyl)-3-(2,4,6-trichlorophenyl)urea]
response vs control in vivo at 0.03 % [1, 3]: 28%
response vs control in vivo at 0.03 % [1, 4]: 56%
inhibition at 5.2 µg/mL [2]: 90%

inhibition at 5.2 µg/mL [2, 5]: 67.6%
Structure (SMILES): Cc1ccc(CCN(Cc2cccc(Cl)c2)C(=O)Nc2ccc(C)cc2C)cc1 [1-[2-(4-Methylphenyl)ethyl]-1-(3-chlorobenzyl)-3-(2,4-dimethylphenyl)urea]
response vs control in vivo at 0.03 % [1, 3]: 20%
response vs control in vivo at 0.03 % [1, 4]: 50%

Structure (SMILES): CCCCOc1ccc(CN(Cc2cccs2)C(=O)Nc2cc(C)c(C)cc2C)cc1 [1-[(4-Butoxyphenyl)methyl]-1-(2-thienylmethyl)-3-(2,4,5-trimethylphenyl)urea]
response vs control in vivo at 0.03 % [1, 3]: 16%
response vs control in vivo at 0.03 % [1, 4]: 41%
inhibition at 5.2 µg/mL [2]: 90%

Structure (SMILES): CCCCc1ccc(CN(CCCCCCCl)C(=O)Nc2cc(C)c(C)cc2C)cc1 [1-[(4-Butylphenyl)methyl]-1-(6-chlorohexyl)-3-(2,4,5-trimethylphenyl)urea]
response vs control in vivo at 0.03 % [1, 3]: 15%
response vs control in vivo at 0.03 % [1, 4]: 40%
inhibition at 5.2 µg/mL [2]: 90%

Structure (SMILES): CCCCc1ccc(CN(CCCCCCCl)C(=O)Nc2c(Cl)cc(Cl)cc2Cl)cc1 [1-[(4-Butylphenyl)methyl]-1-(6-chlorohexyl)-3-(2,4,6-trichlorophenyl)urea]
response vs control in vivo at 0.03 % [1, 3]: 19%
response vs control in vivo at 0.03 % [1, 4]: 34%
inhibition at 5.2 µg/mL [2]: 90%

Structure (SMILES): CCCCc1ccc(CN(CCCCCCCl)C(=O)Nc2ccc(Cl)cc2C)cc1 [1-[(4-Butylphenyl)methyl]-1-(6-chlorohexyl)-3-(4-chloro-2-methylphenyl)urea]
response vs control in vivo at 0.03 % [1, 3]: 35%
response vs control in vivo at 0.03 % [1, 4]: 46%
inhibition at 5.2 µg/mL [2]: 90%

Structure (SMILES): CCCCc1ccc(CN(CCCCCCC#N)C(=O)Nc2cc(C)c(C)cc2C)cc1 [1-[(4-Butylphenyl)methyl]-1-(6-cyanohexyl)-3-(2,4,5-trimethylphenyl)urea]
response vs control in vivo at 0.03 % [1, 3]: 28%
response vs control in vivo at 0.03 % [1, 4]: 48%
inhibition at 5.2 µg/mL [2]: 90%

Structure (SMILES): CCCCc1ccc(CN(CCCCCCC#N)C(=O)Nc2c(Cl)cc(Cl)cc2Cl)cc1 [1-[(4-Butylphenyl)methyl]-1-(6-cyanohexyl)-3-(2,4,6-trichlorophenyl)urea]
response vs control in vivo at 0.03 % [1, 3]: 35%
response vs control in vivo at 0.03 % [1, 4]: 31%
inhibition at 5.2 µg/mL [2]: 90%

Structure (SMILES): CCCCc1ccc(CN(CCCCCCO)C(=O)Nc2cc(C)c(C)cc2C)cc1 [1-[(4-Butylphenyl)methyl]-1-(6-hydroxyhexyl)-3-(2,4,5-trimethylphenyl)urea]
response vs control in vivo at 0.03 % [1, 3]: 39%
response vs control in vivo at 0.03 % [1, 4]: 57%
inhibition at 5.2 µg/mL [2]: 90%

Structure (SMILES): CCCCc1ccc(CN(CCCCCCO)C(=O)Nc2c(Cl)cc(Cl)cc2Cl)cc1 [1-[(4-Butylphenyl)methyl]-1-(6-hydroxyhexyl)-3-(2,4,6-trichlorophenyl)urea]
response vs control in vivo at 0.03 % [1, 3]: 32%
response vs control in vivo at 0.03 % [1, 4]: 35%
inhibition at 5.2 µg/mL [2]: 90%

Structure (SMILES): CCCCCCCN(Cc1ccc(CCCC)cc1)C(=O)Nc1ccc(F)cc1F [1-[(4-Butylphenyl)methyl]-1-(n-heptyl)-3-[2,4-difluorophenyl]urea]
response vs control in vivo at 0.03 % [1, 3]: 19%
response vs control in vivo at 0.03 % [1, 4]: 35%
inhibition at 5.2 µg/mL [2]: 90%
